# Assays:
# A549/ATCC = assay: NCI one-dose SRB growth inhibition; type: cell-based; conditions: Homo sapiens, A549, 48 h, Non-Small Cell Lung Cancer, read-out: GI% A549/ATCC
# Experimental: (§1) The antitumor assay was performed according to the protocol of the Drug Evaluation Branch, NCI, Bethesda[24–26]. A 48 h drug exposure protocol was adopted, and sulforhodamine B (SRB) assay[27] was utilized to assess the cell growth and viability, as reported earlier[17]^,[28].
# (§2) The structures of all the newly synthesized pyridines 5a–l were submitted to the National Cancer Institute (NCI) Developmental Therapeutic Program (www.dtp.nci.nih.gov). […] Nine different types of cancer were tested in this assay: colon, ovarian, prostate, leukemia, melanoma, CNS, renal, breast and lung cancers. A 48 h drug exposure protocol was adopted, and sulforhodamine B (SRB) assay[27] was utilized to assess the cell growth and viability.
# CCRF-CEM = assay: NCI one-dose SRB growth inhibition; type: cell-based; conditions: Homo sapiens, Leukemia, 48 h, read-out: GI% CCRF-CEM
# Experimental: as §1, §2
# COLO 205 = assay: NCI one-dose SRB growth inhibition; type: cell-based; conditions: Homo sapiens, Colon Cancer, 48 h, read-out: GI% COLO 205
# Experimental: as §1, §2
# EKVX = assay: NCI one-dose SRB growth inhibition; type: cell-based; conditions: Homo sapiens, Non-Small Cell Lung Cancer, 48 h, read-out: GI% EKVX
# Experimental: as §1, §2
# HCT-15 = assay: NCI one-dose SRB growth inhibition; type: cell-based; conditions: Homo sapiens, HCT-15, 48 h, Colon Cancer, read-out: GI% HCT-15
# Experimental: as §1, §2
# HL-60(TB) = assay: NCI one-dose SRB growth inhibition; type: cell-based; conditions: Homo sapiens, Leukemia, 48 h, read-out: GI% HL-60(TB)
# Experimental: as §1, §2
# KM12 = assay: NCI one-dose SRB growth inhibition; type: cell-based; conditions: Homo sapiens, Colon Cancer, 48 h, read-out: GI% KM12
# Experimental: as §1, §2
# LOX IMVI = assay: NCI one-dose SRB growth inhibition; type: cell-based; conditions: Homo sapiens, Melanoma, 48 h, read-out: GI% LOX IMVI
# Experimental: as §1, §2
# M14 = assay: NCI one-dose SRB growth inhibition; type: cell-based; conditions: Homo sapiens, M14, 48 h, Melanoma, read-out: GI% M14
# Experimental: as §1, §2
# MCF7 = assay: NCI one-dose SRB growth inhibition; type: cell-based; conditions: Homo sapiens, Breast Cancer, 48 h, read-out: GI% MCF7
# Experimental: as §1, §2
# MDA-MB-435 = assay: NCI one-dose SRB growth inhibition; type: cell-based; conditions: Homo sapiens, Melanoma, 48 h, read-out: GI% MDA-MB-435
# Experimental: as §1, §2
# MDA-MB-468 = assay: NCI one-dose SRB growth inhibition; type: cell-based; conditions: Homo sapiens, Breast Cancer, 48 h, read-out: GI% MDA-MB-468
# Experimental: as §1, §2
# NCI-H226 = assay: NCI one-dose SRB growth inhibition; type: cell-based; conditions: Homo sapiens, Non-Small Cell Lung Cancer, 48 h, read-out: GI% NCI-H226
# Experimental: as §1, §2
# NCI-H322M = assay: NCI one-dose SRB growth inhibition; type: cell-based; conditions: Homo sapiens, Non-Small Cell Lung Cancer, 48 h, read-out: GI% NCI-H322M
# Experimental: as §1, §2
# NCI-H522 = assay: NCI one-dose SRB growth inhibition; type: cell-based; conditions: Homo sapiens, NCI-H522, 48 h, Non-Small Cell Lung Cancer, read-out: GI% NCI-H522
# Experimental: as §1, §2
# OVCAR-4 = assay: NCI one-dose SRB growth inhibition; type: cell-based; conditions: Homo sapiens, Ovarian Cancer, 48 h, read-out: GI% OVCAR-4
# Experimental: as §1, §2
# OVCAR-8 = assay: NCI one-dose SRB growth inhibition; type: cell-based; conditions: Homo sapiens, Ovarian Cancer, 48 h, read-out: GI% OVCAR-8
# Experimental: as §1, §2
# RPMI-8226 = assay: NCI one-dose SRB growth inhibition; type: cell-based; conditions: Homo sapiens, RPMI-8226, 48 h, Leukemia, read-out: GI% RPMI-8226
# Experimental: as §1, §2
# SF-295 = assay: NCI one-dose SRB growth inhibition; type: cell-based; conditions: Homo sapiens, CNS Cancer, 48 h, read-out: GI% SF-295
# Experimental: as §1, §2
# SK-MEL-28 = assay: NCI one-dose SRB growth inhibition; type: cell-based; conditions: Homo sapiens, Melanoma, 48 h, read-out: GI% SK-MEL-28
# Experimental: as §1, §2
# SK-MEL-2 = assay: NCI one-dose SRB growth inhibition; type: cell-based; conditions: Homo sapiens, Melanoma, 48 h, read-out: GI% SK-MEL-2
# Experimental: as §1, §2
# SNB-19 = assay: NCI one-dose SRB growth inhibition; type: cell-based; conditions: Homo sapiens, CNS Cancer, 48 h, read-out: GI% SNB-19
# Experimental: as §1, §2
# SW-620 = assay: NCI one-dose SRB growth inhibition; type: cell-based; conditions: Homo sapiens, Colon Cancer, 48 h, read-out: GI% SW-620
# Experimental: as §1, §2
# A549 cell line = assay: MTT anti-proliferative assay; type: cell-based; conditions: Homo sapiens, 48 h of incubation, mean ± SD of three experiments
# Experimental: (§3) A549 (non-small cell lung cancer cell line) and HCT-116 (human colon cancer cell line), were obtained from American Type Culture Collection (Manassas, VA, USA). The cells were maintained in Dulbecco’s Modified Eagle’s Medium (DMEM) (Sigma-Aldrich, St. Louis, MO), and supplemented with 10% heat-inactivated FBS (Hyclone), 10 μg/mL of insulin (Manufacturer, Sigma, St. Louis, MO, USA), and 1% penicillin-streptomycin. MTT assay[29] was adopted to assess the in vitro antitumor activity of the newly synthesized pyridines 5a–l according to the reported procedures, using Doxorubicin as a standard treatment. Experimental conditions were tested using three replicates (three wells of the 96-well plate per experimental condition) and all experiments were carried out in triplicates. IC50 values were calculated by the use of the equation for Boltzman sigmoidal concentration–response curve using the nonlinear regression fitting models by Graph Pad, Prism version 5 (GraphPad Software Inc., La Jolla, CA).
# (§4) All newly synthesized pyridines 5a–l were examined for their anti-proliferative activity towards two cancer cell lines: non-small cell lung cancer A549 cell line and colon cancer HCT-116 cell line. The MTT colorimetric assay was adopted to assess the anti-proliferative activity as described by Mosmann[29]. Doxorubicin was used as a control in this assay.
# HCT-116 cell line = assay: MTT anti-proliferative assay; type: cell-based; conditions: Homo sapiens, 48 h of incubation, mean ± SD of three experiments
# Experimental: as §3, §4
# WI-38 cell line = assay: MTT cytotoxicity towards non-tumorigenic cells; type: cell-based, human; conditions: for IC50: WI-38, MTT, non-tumorigenic human lung fibroblast, mean ± SD of three experiments; for S. I. WI-38/A549: selectivity index, IC50 WI-38 / IC50 A549
# Experimental: The cytotoxic activity of all synthesized pyridines 5a–l were assessed against non-tumorigenic human lung fibroblast WI-38 cell line to investigate their safety, using the MTT colorimetric assay.
Structure (SMILES),inhibition at 10 µM (A549/ATCC) [%],inhibition at 10 µM (CCRF-CEM) [%],inhibition at 10 µM (COLO 205) [%],inhibition at 10 µM (EKVX) [%],inhibition at 10 µM (HCT-15) [%],inhibition at 10 µM (HL-60(TB)) [%],inhibition at 10 µM (KM12) [%],inhibition at 10 µM (LOX IMVI) [%],inhibition at 10 µM (M14) [%],inhibition at 10 µM (MCF7) [%],inhibition at 10 µM (MDA-MB-435) [%],inhibition at 10 µM (MDA-MB-468) [%],inhibition at 10 µM (NCI-H226) [%],inhibition at 10 µM (NCI-H322M) [%],inhibition at 10 µM (NCI-H522) [%],inhibition at 10 µM (OVCAR-4) [%],inhibition at 10 µM (OVCAR-8) [%],inhibition at 10 µM (RPMI-8226) [%],inhibition at 10 µM (SF-295) [%],inhibition at 10 µM (SK-MEL-28) [%],also measured
"Cc1nc(-c2ccc(F)cc2)ccc1NC(=O)Nc1cccc(C(F)(F)F)c1 [Compound 5a, 1-(6-(4-Fluorophenyl)-2-methylpyridin-3-yl)-3-(3-(trifluoromethyl)phenyl)urea]",> 40,25,< 10,17,> 40,11,37,37,> 40,30,19,32,18,15,> 40,30,29,> 40,17,20,inhibition at 10 µM (SK-MEL-2): < 10%; inhibition at 10 µM (SNB-19): 15%; inhibition at 10 µM (SW-620): < 10%; IC50 (A549 cell line): 6.83 ± 0.42 µM; IC50 (HCT-116 cell line): 5.49 ± 0.3 µM; IC50 (WI-38 cell line): 93.5 ± 5.28 µM; S. I. WI-38/A549 (WI-38 cell line): 13.7; melting point: 223 to 225 °C
"CCOC(=O)c1ccc(NC(=O)Nc2ccc(-c3cccs3)nc2C)cc1 [Compound 5j, Ethyl 4-(3-(2-methyl-6-(thiophen-2-yl)pyridin-3-yl)ureido)benzoate]",35,50,< 10,< 10,30,10,18,10,38,21,< 10,13,< 10,17,52,< 10,< 10,56,< 10,< 10,inhibition at 10 µM (SK-MEL-2): 11%; inhibition at 10 µM (SNB-19): < 10%; inhibition at 10 µM (SW-620): < 10%; IC50 (A549 cell line): 8.04 ± 0.59 µM; IC50 (HCT-116 cell line): 9.38 ± 0.67 µM; IC50 (WI-38 cell line): 107 ± 7.02 µM; S. I. WI-38/A549 (WI-38 cell line): 13.3; melting point: 203 to 204 °C

# — publication PMC6366416, “Synthesis and in vitro anticancer activity of certain novel 1-(2-methyl-6-arylpyridin-3-yl)-3-phenylureas as apoptosis-inducing agents” (Journal of Enzyme Inhibition and Medicinal Chemistry, 2019)
